From US10051861B2, “N-arylamidine-substituted trifluoroethyl sulfide derivatives as acaricides and insecticides” (BAYER CROPSCIENCE AG, priority 2011, dated 2018)
Where two headings read alike, the source gives them in different places. Marks after values point to notes of the source that are not given here.

Assays:
[1] = system: greenhouse red spider mite (Tetranychus urticae); assay: Tetranychus urticae spray test, OP-resistant (TETRUR), bean leaf disks; assay type: in vivo; conditions: for pest or weed control at 500 g/ha: Tetranychus urticae, foliar, 144 h, read-out: efficacy (spider mites killed)
Procedure: (§1) After 6 days, the effect in % is determined.

Boophilus microplus = Boophilus microplus test (BOOPMI injection); assay type: in vivo; parameters: dose or concentration left out as unconfirmed; conditions: after 7 days
Procedure: (§2) Solvent: dimethyl sulfoxide
The solution of active compound is injected into the abdomen (Boophilus microplus), and the animals are transferred into dishes and kept in a climatized room. The activity is assessed by laying of fertile eggs.
100% means that none of the ticks has laid any fertile eggs.

[2] = logP by HPLC on reversed-phase columns (C 18), EEC Directive 79/831 Annex V.A8; assay type: physicochemical; conditions: for chromatographic logP: reversed-phase C18 HPLC column; for logP(HCOOH): pH 2.7; for logP(neutral): pH 7.8
Procedure: Calibration is carried out using unbranched alkan-2-ones (having from 3 to 16 carbon atoms) with known log P values (the log P values are determined by the retention times using linear interpolation between two successive alkanones).

[3] = system: cattle ticks (Boophilus microplus); assay: Boophilus microplus injection test (BOOPMI Inj); assay type: in vivo; conditions: for pest or weed control at 0.02 mg: Rhipicephalus microplus, 168 h, read-out: efficacy (laying of fertile eggs)
Procedure: as §2
1 μl of the active compound solution is injected into the abdomen of 5 engorged adult female cattle ticks (Boophilus microplus). The animals are transferred into dishes and kept in a climate-controlled room.
The activity is assessed after 7 days by laying of fertile eggs. Eggs whose fertility is not visible from the outside are stored in a climate-controlled cabinet until the larvae hatch after about 42 days. An efficacy of 100% means that none of the ticks has laid any fertile eggs; 0% means that all eggs are fertile.

[4] = system: larvae of the mustard beetle (Phaedon cochleariae); assay: Phaedon cochleariae spray test (PHAECO); conditions: for effect (beetle larvae killed): application rate 500 g/ha, after 7 days; for pest or weed control at 500 g/ha: Phaedon cochleariae, 168 h, read-out: effect (beetle larvae killed)
[5] = system: larvae of the mustard beetle (Phaedon cochleariae); assay: Phaedon test (PHAECO spray treatment); conditions: application rate 500 g/ha, after 7 days
[6] = system: greenhouse red spider mite (Tetranychus urticae); assay: Tetranychus test, OP-resistant (TETRUR spray treatment); assay type: in vivo; conditions: application rate 500 g/ha, after 6 days
Procedure: as §1

[7] = application rate 500 g/ha, after 6 days
[8] = pH 2.7, [a] LC-MS, acidic range, pH 2.7, 0.1% aqueous formic acid/acetonitrile, read-out: logP(HCOOH)
[9] = pH 7.8, [b] LC-MS, neutral range, pH 7.8, 0.001 molar aqueous ammonium bicarbonate/acetonitrile, read-out: logP(neutral)
[10] = application rate 20 μg/animal, injection, after 7 days

Row | logP(HCOOH) [2] | logP(neutral) [2] | SMILES | efficacy (spider mites killed) [1, 7] [%] | efficacy (spider mites killed) [6] [%] | also measured
1 |  |  | Cc1cc(F)c(/N=C(/N(C)C)C(F)(F)F)cc1SCC(F)(F)F [Ia-01, 2,2,2-Trifluoro-N′-{2-fluoro-4-methyl-5-[(2,2,2-trifluoroethyl)sulfanyl]phenyl}-N,N-dimethylethanimidamide] |  |  | pest or weed control at 500 g/ha [1, 7]: 100%; efficacy (laying of fertile eggs) (Boophilus microplus): 100%; chromatographic logP [2, 8]: 4.48; chromatographic logP [2, 9]: 4.5; pest or weed control at 0.02 mg [3, 10]: 100%
2 | 4.45 | 4.43 | CCCNC(=Nc1cc(SCC(F)(F)F)c(C)cc1F)C(F)(F)F [Ia-02] | 100 | 100 | effect (beetle larvae killed) [4]: 100%; efficacy (beetle larvae killed) [5]: 100%
3 |  |  | Cc1cc(F)c(N=C(N)C(F)F)cc1SCC(F)(F)F [Ia-03] | 100 | 100 | log P ([2]; pH 2.3): 2.2^[c]
4 | 3.68^[a] |  | Cc1cc(F)c(N=C(NCc2ccccn2)C(F)(F)F)cc1SCC(F)(F)F [Ia-04] | 100 |  | effect (beetle larvae killed) [4]: 100%; efficacy (beetle larvae killed) [5]: 100%; efficacy (laying of fertile eggs) (Boophilus microplus): 80%; efficacy (laying of fertile eggs) [3, 10]: 80%
5 | 4.51 | 4.52 | Cc1cc(F)c(N=C(NC(C)C)C(F)(F)F)cc1SCC(F)(F)F [Ia-05] | 100 | 100 | effect (beetle larvae killed) [4]: 100%; efficacy (beetle larvae killed) [5]: 100%
6 | 3.72 | 3.69 | CNC(=Nc1cc(SCC(F)(F)F)c(F)cc1C)C(F)(F)F [Ia-09] | 80 | 80 | 
7 | 3.95 | 4.01 | CNC(=Nc1cc(SCC(F)(F)F)c(C)cc1C)C(F)(F)F [Ia-12] | 100 | 100 | 
8 |  |  | NC(=Nc1cc(SCC(F)(F)F)c(Cl)cc1Cl)C(F)(F)F [Ia-14] | 100 |  | effect (beetle larvae killed) [4]: 100%; efficacy (beetle larvae killed) [5]: 100%
9 | 4.2^[a]; 4.2^[b] | 4.2^[a]; 4.2^[b] | CNC(=Nc1cc(SCC(F)(F)F)c(Cl)cc1Cl)C(F)(F)F [Ia-15] | 100 | 100 | effect (beetle larvae killed) [4]: 100%; efficacy (beetle larvae killed) [5]: 100%
10 | 3.16 | 3.14 | Cc1cc(F)c(SCC(F)(F)F)cc1N=C(N)C(F)(F)F [Ia-17] | 80 | 80 | 
11 | 4.12^[a]; 4.12^[b] | 4.12^[a]; 4.12^[b] | CCNC(=Nc1cc(SCC(F)(F)F)c(C)cc1F)C(F)(F)F [Ia-18] | 100 | 100 | effect (beetle larvae killed) [4]: 100%; efficacy (beetle larvae killed) [5]: 100%
12 |  |  | CNC(=Nc1ccc(C(F)(F)F)c(SCC(F)(F)F)c1)C(F)(F)F [Ia-19] | 100 |  | effect (beetle larvae killed) [4]: 100%; efficacy (beetle larvae killed) [5]: 100%
13 |  |  | Cc1cc(F)c(N=C(N)C(F)(F)C(F)(F)C(F)(F)C(F)(F)C(F)(F)C(F)F)cc1SCC(F)(F)F [Ia-22] | 100 |  | efficacy (laying of fertile eggs) (Boophilus microplus): 100%; efficacy (laying of fertile eggs) [3, 10]: 100%
14 | 4.87^[a]; 4.87^[b] | 4.87^[a]; 4.87^[b] | Cc1cc(C)c(SCC(F)(F)F)cc1N=C(N(C)C)C(F)(F)F [Ia-23] | 100 | 100 | 
15 | 4.03 | 4.02 | Cc1cc(F)c(N=C(NC2CC2)C(F)(F)F)cc1SCC(F)(F)F [Ia-26] | 100 | 100 | 
16 |  |  | Cc1cc(F)c(/N=C(\N)C2(F)CC2)cc1SCC(F)(F)F [Ia-27, 1-Fluoro-N′-{2-fluoro-4-methyl-5-[(2,2,2-trifluoroethyl)sulfanyl]phenyl}cyclopropanecarboximidamide] |  |  | pest or weed control at 500 g/ha [4]: 100%; pest or weed control at 500 g/ha [1]: 100%; chromatographic logP [2, 8]: 1.2; pest or weed control at 0.02 mg [3]: 100%
17 |  |  | Cc1cc(F)c(/N=C(/N(C)C)C(F)(F)F)cc1[S+]([O-])CC(F)(F)F (stereo not drawn) [Ib-01, 2,2,2-Trifluoro-N′-{2-fluoro-4-methyl-5-[(2,2,2-trifluoroethyl)sulfinyl]phenyl}-N,N-dimethylethanimidamide] |  |  | pest or weed control at 500 g/ha [1, 7]: 90%; efficacy (laying of fertile eggs) (Boophilus microplus): 100%; chromatographic logP [2, 8]: 3.15; pest or weed control at 0.02 mg [3, 10]: 100%

Row | logP(HCOOH) [2] | logP(neutral) [2] | SMILES | efficacy (spider mites killed) [1, 7] [%] | efficacy (spider mites killed) [6] [%] | also measured
18 |  |  | Cc1cc(F)c(N=C(NC(C)C)C(F)(F)F)cc1[S+]([O-])CC(F)(F)F (stereo not drawn) [Ib-03] | 100 | 100 | efficacy (laying of fertile eggs) [3, 10]: 100%
19 | 3.15 | 3.09 | CNC(=Nc1cc([S+]([O-])CC(F)(F)F)c(C)cc1C)C(F)(F)F (stereo not drawn) [Ib-04] | 80 | 80 | 
20 | 2.86 | 2.79 | CNC(=Nc1cc([S+]([O-])CC(F)(F)F)c(F)cc1C)C(F)(F)F (stereo not drawn) [Ib-05] | 80 | 80 | 
21 | 3.24 | 3.17 | CCCNC(=Nc1cc([S+]([O-])CC(F)(F)F)c(C)cc1F)C(F)(F)F (stereo not drawn) [Ib-06] | 100 | 100 | 
22 | 2.64 | 2.61 | CNC(=Nc1cc([S+]([O-])CC(F)(F)F)c(C)cc1F)C(F)(F)F (stereo not drawn) [Ib-07] | 100 | 100 | efficacy (laying of fertile eggs) [3, 10]: 100%
23 | 2.68 | 2.67 | Cc1cc(F)c(/N=C(/NC2CC2)C(F)(F)F)cc1[S+]([O-])CC(F)(F)F (stereo not drawn) [Ib-08] | 100 | 100 | 
24 | 3.23 | 3.19 | Cc1cc(C)c([S+]([O-])CC(F)(F)F)cc1N=C(N(C)C)C(F)(F)F (stereo not drawn) [Ib-09] | 100 | 100 | 
25 | 2.52 | 2.49 | CN/C(=N/c1ccc(C(F)(F)F)c([S+]([O-])CC(F)(F)F)c1)C(F)(F)F (stereo not drawn) [Ib-10] | 100 |  | effect (beetle larvae killed) [4]: 100%; efficacy (beetle larvae killed) [5]: 100%; efficacy (laying of fertile eggs) (Boophilus microplus): 100%; efficacy (laying of fertile eggs) [3, 10]: 100%
26 | 3.36 | 3.3 | Cc1cc(C)c([S+]([O-])CC(F)(F)F)cc1/N=C(/N)C(F)(F)F (stereo not drawn) [Ib-12] | 100 | 100 | efficacy (laying of fertile eggs) [3, 10]: 100%
27 |  |  | Cc1cc(F)c([S+]([O-])CC(F)(F)F)cc1/N=C(/N)C(F)(F)F (stereo not drawn) [Ib-13] | 100 | 100 | 
28 | 2.17 | 2.14 | Cc1cc(F)c([S+]([O-])CC(F)(F)F)cc1N=C(N(C)C)C(F)(F)F (stereo not drawn) [Ib-15] | 100 | 100 | 
29 |  |  | N/C(=N/c1cc([S@+]([O-])CC(F)(F)F)c(Cl)cc1Cl)C(F)(F)F [Ib-17] |  |  | pest or weed control at 500 g/ha [4]: 100%; pest or weed control at 500 g/ha [1, 7]: 100%; pest or weed control at 0.02 mg [3, 10]: 100%
30 |  |  | N/C(=N/c1cc([S+]([O-])CC(F)(F)F)c(Br)cc1Br)C(F)(F)F (stereo not drawn) [Ib-18] |  |  | pest or weed control at 500 g/ha [4]: 83%; pest or weed control at 500 g/ha [1, 7]: 80%; pest or weed control at 0.02 mg [3, 10]: 100%
31 |  |  | Cc1cc(F)c(/N=C2\CCCN2C)cc1[S+]([O-])CC(F)(F)F (stereo not drawn) [Ib-20] |  |  | pest or weed control at 500 g/ha [4]: 100%; pest or weed control at 500 g/ha [1, 7]: 100%; pest or weed control at 0.02 mg [3, 10]: 100%
32 |  |  | Cc1cc(Cl)c(/N=C(/N)C(F)(F)F)cc1[S+]([O-])CC(F)(F)F (stereo not drawn) [Ib-68] |  |  | pest or weed control at 500 g/ha [4]: 100%; pest or weed control at 500 g/ha [1, 7]: 100%; pest or weed control at 0.02 mg [3, 10]: 100%
33 |  |  | N/C(=N/c1ccc(Cl)c([S+]([O-])CC(F)(F)F)c1)C(F)(F)F (stereo not drawn) [Ib-108, N′-{4-Chloro-3-[(2,2,2-trifluoroethyl)sulfinyl]phenyl}-2,2,2-trifluoroethanimidamide] |  |  | pest or weed control at 500 g/ha [4]: 83%; pest or weed control at 500 g/ha [1, 7]: 100%; chromatographic logP [2, 8]: 2.25; chromatographic logP [2, 9]: 2.21; pest or weed control at 0.02 mg [3, 10]: 100%
